Experimental findings from ChEMBL document CHEMBL1137885, “P4 and P1' optimization of bicycloproline P2 bearing tetrapeptidyl alpha-ketoamides as HCV protease inhibitors” (Bioorg Med Chem Lett, 2004) are described below.

For assay [1], the system named is Huh-7. As to the kind of experiment: Cytotoxic concentration against Huh-7 liver cells in XTT cytotoxicity assay. As to conditions: Homo sapiens. In kind it is functional.
The target in assay [2] is Trypsin (Homo sapiens, UniProt P07477+P07478+P35030). Nature of the assay: Binding affinity towards human trypsin. In kind it is protein assay.
Assay [3] addresses Cathepsin B (Homo sapiens, UniProt P07858). As to the kind of experiment: Binding affinity towards human cathepsin B.
For assay [4], the target named is Plasminogen (Homo sapiens, UniProt P00747). Nature of the assay: Binding affinity towards human plasmin.
Plasminogen, sequence (P00747 97-580 limits assumed): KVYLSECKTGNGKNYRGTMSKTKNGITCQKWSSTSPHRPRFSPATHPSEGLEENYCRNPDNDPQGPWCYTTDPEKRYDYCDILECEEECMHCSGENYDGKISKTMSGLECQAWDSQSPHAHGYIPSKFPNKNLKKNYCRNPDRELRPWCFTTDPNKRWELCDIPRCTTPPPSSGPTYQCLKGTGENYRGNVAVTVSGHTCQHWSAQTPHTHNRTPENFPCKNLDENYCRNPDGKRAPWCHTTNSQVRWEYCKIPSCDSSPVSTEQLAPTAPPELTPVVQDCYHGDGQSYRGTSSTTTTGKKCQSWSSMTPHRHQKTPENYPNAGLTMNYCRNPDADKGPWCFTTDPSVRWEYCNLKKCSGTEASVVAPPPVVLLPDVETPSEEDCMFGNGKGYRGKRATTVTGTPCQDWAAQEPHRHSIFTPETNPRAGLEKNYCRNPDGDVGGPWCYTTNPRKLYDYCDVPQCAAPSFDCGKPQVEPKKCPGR
Plasminogen, sequence (P00747 581-810 limits assumed): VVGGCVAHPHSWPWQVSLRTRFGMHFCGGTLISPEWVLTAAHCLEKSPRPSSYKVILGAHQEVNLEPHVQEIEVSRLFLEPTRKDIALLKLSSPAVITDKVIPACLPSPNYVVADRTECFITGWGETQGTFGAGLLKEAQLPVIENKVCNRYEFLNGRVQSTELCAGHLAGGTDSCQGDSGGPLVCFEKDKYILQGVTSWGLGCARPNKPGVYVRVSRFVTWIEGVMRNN
A short description of assay [5]: Selectivity for HCV NS3 over human elastase.
For assay [6], the target named is Plasma kallikrein (Homo sapiens, UniProt P03952). Nature of the assay: Binding affinity towards human kallikrein.
Plasma kallikrein, sequence (P03952 20-390 limits assumed): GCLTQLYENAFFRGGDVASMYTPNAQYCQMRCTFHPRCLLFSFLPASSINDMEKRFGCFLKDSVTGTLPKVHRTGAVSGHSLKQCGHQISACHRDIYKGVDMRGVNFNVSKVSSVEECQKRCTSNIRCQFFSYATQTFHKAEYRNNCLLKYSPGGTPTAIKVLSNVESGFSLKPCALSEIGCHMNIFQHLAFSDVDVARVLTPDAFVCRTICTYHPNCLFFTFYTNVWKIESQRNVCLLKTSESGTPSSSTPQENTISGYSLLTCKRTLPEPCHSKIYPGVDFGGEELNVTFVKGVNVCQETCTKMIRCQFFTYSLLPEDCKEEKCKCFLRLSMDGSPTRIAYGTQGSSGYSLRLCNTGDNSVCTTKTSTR
Plasma kallikrein, sequence (P03952 391-638 limits assumed): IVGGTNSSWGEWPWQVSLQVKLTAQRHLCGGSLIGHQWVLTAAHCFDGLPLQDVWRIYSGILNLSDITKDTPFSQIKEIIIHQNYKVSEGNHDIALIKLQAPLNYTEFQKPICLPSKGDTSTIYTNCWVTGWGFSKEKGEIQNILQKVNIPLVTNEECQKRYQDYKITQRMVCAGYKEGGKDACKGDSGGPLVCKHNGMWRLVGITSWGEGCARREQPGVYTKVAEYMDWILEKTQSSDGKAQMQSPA
The target of assay [7] is Prothrombin (Homo sapiens, UniProt P00734). As to the kind of experiment: Binding affinity towards human thrombin.
Assay [8] addresses Chymotrypsinogen B (Homo sapiens, UniProt P17538). Nature of the assay: Binding affinity towards human Chymotrypsinogen.
The target in assay [9] is Procathepsin L (Homo sapiens, UniProt P07711). As to the kind of experiment: Selectivity for HCV NS3 over human cathepsin L.
Procathepsin L, sequence (P07711 whole entry): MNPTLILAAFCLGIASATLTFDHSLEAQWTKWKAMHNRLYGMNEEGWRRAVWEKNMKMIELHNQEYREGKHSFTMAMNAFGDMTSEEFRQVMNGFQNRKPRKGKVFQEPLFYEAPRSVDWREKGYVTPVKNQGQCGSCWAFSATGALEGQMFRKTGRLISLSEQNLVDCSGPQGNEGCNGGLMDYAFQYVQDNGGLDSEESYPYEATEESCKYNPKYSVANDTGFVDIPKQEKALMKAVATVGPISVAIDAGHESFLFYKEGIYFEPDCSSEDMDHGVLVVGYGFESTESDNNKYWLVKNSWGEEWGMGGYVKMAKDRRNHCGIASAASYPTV
In assay [10] the test system is Hepatitis C virus. Nature of the assay: Inhibitory concentration against hepatitis C virus in replicon assay. In kind it is functional, organism-based, Hepacivirus hominis.
The test system of assay [11] is Huh-7. As to the kind of experiment: Ratio of CC50 to that of IC50 value. The class given is functional, Homo sapiens.
In assay [12] the target is NS3 (Hepatitis C virus, UniProt A3EZJ3). Nature of the assay: Inhibition of HCV NS3 protease in the pNA based inhibition assay. Further details: species or system Hepacivirus hominis.
NS3, sequence (A3EZJ3 whole entry): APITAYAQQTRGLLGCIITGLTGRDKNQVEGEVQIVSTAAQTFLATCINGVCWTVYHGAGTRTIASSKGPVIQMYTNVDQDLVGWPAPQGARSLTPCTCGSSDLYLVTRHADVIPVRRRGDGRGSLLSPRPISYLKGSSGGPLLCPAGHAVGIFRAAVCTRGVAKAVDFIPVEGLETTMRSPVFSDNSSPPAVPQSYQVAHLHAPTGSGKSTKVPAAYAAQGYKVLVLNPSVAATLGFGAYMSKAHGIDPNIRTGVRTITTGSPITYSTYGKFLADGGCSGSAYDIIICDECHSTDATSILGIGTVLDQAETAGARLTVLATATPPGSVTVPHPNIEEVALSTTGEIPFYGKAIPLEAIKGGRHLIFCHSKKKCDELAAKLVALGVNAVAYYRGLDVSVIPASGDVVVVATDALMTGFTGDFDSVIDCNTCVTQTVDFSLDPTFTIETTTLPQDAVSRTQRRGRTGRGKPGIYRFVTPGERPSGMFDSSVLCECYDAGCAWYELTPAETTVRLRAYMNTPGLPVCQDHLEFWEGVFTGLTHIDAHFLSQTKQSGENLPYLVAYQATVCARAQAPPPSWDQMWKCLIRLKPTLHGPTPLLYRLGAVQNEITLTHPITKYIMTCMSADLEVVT

A value given as a limit tells only on which side of the number the result lay.

Chymotrypsinogen B, sequence (P17538 34-164 limits assumed, other chains not shown): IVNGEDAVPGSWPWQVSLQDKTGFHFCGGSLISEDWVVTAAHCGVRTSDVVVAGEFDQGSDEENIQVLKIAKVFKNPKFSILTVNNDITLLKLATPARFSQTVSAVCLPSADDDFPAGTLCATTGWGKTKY
Chymotrypsinogen B, sequence (P17538 167-263 limits assumed, other chains not shown): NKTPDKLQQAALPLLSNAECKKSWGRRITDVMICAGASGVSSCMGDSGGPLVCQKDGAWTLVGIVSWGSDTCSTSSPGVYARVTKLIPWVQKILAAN

For the compound `CCCC(NC(=O)[C@@H]1C2CCCC2CN1C(=O)[C@@H](NC(=O)[C@@H](NC(=O)c1cnccn1)C1CCCCC1)C(C)(C)C)C(=O)C(=O)N[C@H](C)c1ccccc1` (stereo partly drawn), it took 22 µM to reach half-maximal cytotoxicity in [1] (CC50). Moreover, the Ki is more than 50 µM in assay [2]; 283 µM in assay [3]; more than 50 µM in assay [4]; more than 50 µM in [6]; more than 50 µM in [7]; more than 50 µM in [8]. This compound gave a Ki in assay [12] of 0.09 µM. The selectivity ratio in assay [5] worked out at 29; in assay [9], 51. In assay [10], this compound came in with an IC50 of 0.21 µM. In [11], the Ratio amounted to 105.

In assay [1], `CCCC(NC(=O)[C@@H]1C2CCCC2CN1C(=O)[C@@H](NC(=O)[C@@H](NC(=O)c1cnccn1)C1CCCCC1)C(C)(C)C)C(=O)C(=O)N[C@H](C)CC` (stereo partly drawn) yielded a CC50 of 69.2 µM. Further, the Ki in assay [2] was more than 50 µM; in assay [3] it was 13 µM; in assay [4], more than 50 µM; in assay [6], more than 50 µM; in [7], more than 50 µM; in assay [8] it was more than 50 µM. The affinity in [12] corresponds to a Ki of 0.08 µM. For the same compound, the selectivity ratio in assay [5] stood at 81; in assay [9], 107. Besides, inhibition in assay [10] was half-maximal at 1.07 µM (IC50). Moreover, in [11], the Ratio is 65.

On to `CCC[C@H](NC(=O)[C@@H]1C2CCCC2CN1C(=O)[C@@H](NC(=O)[C@@H](NC(=O)c1cnccn1)c1ccccc1)C(C)(C)C)C(=O)C(=O)NC1CC1` (stereo partly drawn), for which the CC50 in [1] was 58.6 µM. The same compound came in with an IC50 in assay [10] of 2.81 µM. Moreover, in assay [11], the Ratio is on record as 21. This compound also yielded an inhibition constant Ki in [12] of 0.65 µM.

With `CCC[C@H](NC(=O)[C@@H]1C2CCCC2CN1C(=O)[C@@H](NC(=O)[C@@H](NC(=O)c1cnccn1)[C@@H](C)CC)C(C)(C)C)C(=O)C(=O)NC1CC1` (stereo partly drawn), the cytotoxic concentration (CC50) in assay [1] was more than 100 µM. Further, the Ki in [2] is more than 50 µM; in assay [3] it was 10 µM; in assay [4] it was more than 50 µM; in assay [6], more than 50 µM; in [7] it was more than 50 µM; in assay [8], more than 50 µM. The Ki in [12] is 0.08 µM. In addition, the selectivity ratio in [5] amounted to 36; in assay [9], 15. Also, in [10], half-maximal inhibition (IC50) required 1.44 µM. Besides, the Ratio in assay [11] is more than 69.

Consider `CCC[C@H](NC(=O)[C@@H]1C2CCCC2CN1C(=O)[C@@H](NC(=O)[C@@H](NC(=O)c1cnccn1)[C@@H](C)OC)C(C)(C)C)C(=O)C(=O)NC1CC1` (stereo partly drawn), for which the CC50 in assay [1] is more than 100 µM. In addition, the Ki in [2] was more than 50 µM; in assay [3], 7.3 µM; in [4], more than 50 µM; in assay [6], more than 50 µM; in assay [7], more than 50 µM; in assay [8], more than 50 µM. The compound further yielded a Ki in assay [12] of 0.15 µM. Moreover, the selectivity ratio in assay [5] was determined as 126; in assay [9] it was 146. Also, in assay [10], it took 4.35 µM to reach half-maximal inhibition (IC50). Moreover, the Ratio in assay [11] is more than 22.

`CCC[C@H](NC(=O)[C@@H]1C2CCCC2CN1C(=O)[C@@H](NC(=O)[C@@H](NC(=O)c1cnccn1)C(C)(C)C)C(C)(C)C)C(=O)C(=O)NC1CC1` (stereo partly drawn) yielded a CC50 in assay [1] of more than 100 µM. The Ki in [2] was more than 50 µM; in assay [3], 3.9 µM; in assay [4], more than 50 µM; in assay [6] it was more than 50 µM; in assay [7], more than 50 µM; in [8], more than 50 µM. This compound also had a Ki in [12] of 0.16 µM. Also, the results for the selectivity ratio in assay [5] and in [9] were 102 and 123, respectively. In addition, the IC50 in [10] came out at 1.29 µM. In addition, in assay [11], the Ratio is listed as more than 77.

For the compound `CCCC(NC(=O)[C@@H]1[C@H]2CCC[C@H]2CN1C(=O)[C@@H](NC(=O)[C@@H](NC(=O)c1cnccn1)C(C)C)C(C)(C)C)C(=O)C(=O)NC1CC1` (stereo partly drawn), the CC50 in assay [1] is more than 100 µM. The Ki in assay [2] was more than 50 µM; in assay [3], 1.6 µM; in assay [4], more than 50 µM; in [6] it was more than 50 µM; in assay [7] it was more than 50 µM; in [8] it was more than 50 µM.

In assay [1], `CCCC(NC(=O)[C@@H]1C2CCCC2CN1C(=O)[C@@H](NC(=O)[C@@H](NC(=O)c1cnccn1)C1CCCCC1)C(C)(C)C)C(=O)C(=O)NC[C@@H](C)CC` (stereo partly drawn) returned a cytotoxic concentration (CC50) of 31.7 µM. The same compound had a half-maximal inhibitory concentration (IC50) in assay [10] of 1 µM. The Ratio in assay [11] amounted to 32. In assay [12], this compound displayed a Ki of 0.25 µM.

Consider `CCCC(NC(=O)[C@@H]1C2CCCC2CN1C(=O)[C@@H](NC(=O)[C@H](CC1CCCCC1)NC(=O)c1cnccn1)C(C)(C)C)C(=O)C(=O)NC1CC1` (stereo partly drawn), for which, in assay [1], half-maximal cytotoxicity (CC50) was put at 45.5 µM. In addition, in [10], the IC50 is 2.81 µM. In addition, the Ratio in [11] came to 16. The affinity in assay [12], expressed as Ki, was 0.65 µM.

Consider `CC(C)(C)[C@H](NC(=O)[C@@H](NC(=O)c1cnccn1)C1CCCCC1)C(=O)N1CC2CCCC2[C@H]1C(=O)NC(CC(F)F)C(=O)C(=O)NC1CC1` (stereo partly drawn), for which, in assay [1], the CC50 is more than 100 µM. Further, the Ki in assay [2] was more than 50 µM; in assay [3], 40 µM; in assay [4], more than 50 µM; in assay [6], more than 50 µM; in [7], more than 50 µM; in assay [8] it was more than 50 µM. Also, affinity in assay [12] was put at a Ki of 0.02 µM. Further, the values for the selectivity ratio in [5] and in assay [9] were 392 and 760, respectively. In [10], this compound registered an IC50 of 0.4 µM. Moreover, the Ratio in assay [11] was determined as 250.

In [1], `CCCC(NC(=O)[C@@H]1[C@H]2CCC[C@H]2CN1C(=O)[C@@H](NC(=O)[C@@H](NC(=O)c1cnccn1)C1CCCCC1)C(C)(C)C)C(=O)C(=O)NC1CC1` (stereo partly drawn) returned a CC50 of 86.5 µM. The Ki in assay [2] was more than 50 µM; in assay [3] it was 3 µM; in assay [4], more than 50 µM; in assay [6], more than 50 µM; in assay [7], more than 50 µM; in assay [8], more than 50 µM. The affinity in assay [12] corresponds to a Ki of 0.07 µM. Besides, the selectivity ratio in [5] was determined as 62; in assay [9] it was 134. Also, it took 0.55 µM to reach half-maximal inhibition in assay [10] (IC50). In addition, the Ratio in [11] is 157.
